Data published in US9499534B2, “Thiazole-substituted aminopyrimidines as spleen tyrosine kinase inhibitors” (priority 2013, dated 2016).

Key:
[1] = phase II clinical trial for allergic rhinitis; cited from earlier work
[2] = test system: PGD2; conditions: dosed intranasally, phase I/II study, allergic rhinitis; cited from earlier work
[3] = target: recombinant human GST-SYK (Homo sapiens (Human), UniProt P43405); assay: Homogeneous Time-Resolved Fluorescence (HTRF) Assay for the Recombinant Human Syk Enzyme; type: biochemical; conditions: GST-SYK 5 pM, ATP 25 μM, biotinylated substrate peptide 250 nM, HTRF signal
Description: Homogeneous Time-Resolved Fluorescence (HTRF) Assay for the Recombinant Human Syk Enzyme
A recombinant GST-hSYK fusion protein was used to measure potency of compounds to inhibit human Syk activity. The recombinant human GST-SYK (Carna Biosciences #08-176) (5 pM final concentration) was incubated with various concentrations of the inhibitor diluted in DMSO (0.1% final concentration) for 10 minutes at room temperature in 15 mM Tris-HCl (pH 7.5), 0.01% tween 20, 2 mM DTT in 384 well plate format. To initiate the reaction the biotinylated substrate peptide (250 nM final concentration) that contains the phosphorylation site for Syk was added with magnesium (5 mM final concentration) and ATP (25 μM final concentration). Final volume of the reaction was 10 μL. Phosphorylation of the peptide was allowed to proceed for 45′ at room temperature. To quench the reaction and detect the phosphorylated product, 2 nM of a Europium-anti-phosphotyrosine antibody (Perkin Elmer #AD0161) and 70 nM SA-APC (Perkin-Elmer #CR130-100) were added together in 15 mM Tris pH 7.5, 40 mM EDTA, 0.01% tween 20. Final volume of the quenching solution was 10 μL.
The resulting HTRF signal was measured after 30 minutes on an EnVision (Perkin-Elmer) reader using a time-resolved fluorescence protocol. Table A below lists activities as IC50 values (nM) for representative compounds of the invention.

IC50 [3] [nM] | SMILES | efficacy versus placebo [1] | clinical safety [2] | decrease in PGD2 [2]
– | Oc1cccc(Nc2ncc(F)c(Nc3cccc(O)c3)n2)c1 [Example R112] | lack of efficacy versus placebo | safe across a range of indicators | statistically significant decrease
285 | CC1(C)C[C@](O)(c2ncc(-c3cc(Nc4nccc(C(F)(F)F)n4)cc(-c4cnn(C(C)(C)C)c4)c3)s2)CC[C@H]1C(=O)O (single isomer, unassigned) [Example 2.2, (1R,4S or 1S,4R)-4-{5-[3-(1-tert-butyl-1H-pyrazol-4-yl)-5-{[4-(trifluoromethyl)pyrimidin-2-yl]amino}phenyl]-1,3-thiazol-2-yl}-4-hydroxy-2,2-dimethylcyclohexanecarboxylic acid] | – | – | –
